Test system: pancreatic lipase
Assay: 3-phase simulated digestion, pH-stat titration of fatty acids released in small intestinal phase
Type: biochemical
Settings: heavy cream, 13.3% fat, orlistat 4.8 mg/ml
Text: Corn oils was purchased from Sigma, Inc. These aforementioned fat food models were combined with nanocellulose or other control fibers including psyllium husk (Sigma) and wheat dextrin (Sigma) or the lipase inhibitor orlistat (Sigma). To combine test materials with cream, water, cream and the test material were combined to achieve the desired final concentrations of each, and the mixture was vortexed for 30 seconds. To combine test fibers with corn oil, the oil and water components were first combined and homogenized at high speed for 1 minute. Fibers or orlistat were then added to the emulsion and the mixture was vortexed for 30 seconds.
In vivo simulated digestion was performed using a 3-phase (mouth, stomach, small intestine) method. Briefly, in the mouth phase of the gastrointestinal tract (GIT) simulator, the nano-enabled food was mixed with a simulated saliva fluid and incubated at 37° C. for 10 seconds. The resultant mouth digesta was then combined and incubated with a simulated gastric fluid and incubated for 2 hours at 37° C. on an orbital shaker to complete the stomach phase. […] Free fatty acid (FFA) at the beginning of the intestinal phase (before addition of lipase) and in the final digesta was measured using a fluorometric assay kit (Cayman Chemical Cat #700310). […]

CCCCCCCCCCC[C@@H](C[C@@H]1OC(=O)[C@H]1CCCCCC)OC(=O)[C@H](CC(C)C)NC=O [orlistat]
reduction of lipase activity (NaOH titrant used, percentage of total free fatty acids released): 91.5%

Source: US12064448B2, “Methods for reducing bioavailability and absorption of ingested substances” (Nanyang Technological University, priority 2017, dated 2024)
